The values below come from EP4467141A1, “PYRAZOLO-QUINOLINES AS SELECTIVE INHIBITORS OF GENOTOXIC STRESS-INDUCED IKK/NF- KB PATHWAYS FOR CANCER THERAPY” (Max-Delbrück-Centrum für Molekulare Medizin in der …, priority 2023, dated 2024).

Common to all, as to experiment: Kinase panel study
Common to all, as to type: biochemical

The target in one assay is T1, AKT1 (PKB alpha) (Homo sapiens, UniProt P31749).
T1 construct: purchased Thermo Fisher Scientific
The note with it: AKT1 (PKB alpha); compound at 10µM; read-out: % of Inhibition. In short, it runs like this: (§1)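 Kinase inhibition was determined by a contract provider in cell-free ZLyte or Adapta assays. Results are expressed as % inhibition at 10 or 1 µM.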

In a further assay the target is T2, GSG2 (Haspin) (Homo sapiens, UniProt Q8TF76).
T2 construct: purchased Thermo Fisher Scientific
T2 sequence (Q8TF76 1-798): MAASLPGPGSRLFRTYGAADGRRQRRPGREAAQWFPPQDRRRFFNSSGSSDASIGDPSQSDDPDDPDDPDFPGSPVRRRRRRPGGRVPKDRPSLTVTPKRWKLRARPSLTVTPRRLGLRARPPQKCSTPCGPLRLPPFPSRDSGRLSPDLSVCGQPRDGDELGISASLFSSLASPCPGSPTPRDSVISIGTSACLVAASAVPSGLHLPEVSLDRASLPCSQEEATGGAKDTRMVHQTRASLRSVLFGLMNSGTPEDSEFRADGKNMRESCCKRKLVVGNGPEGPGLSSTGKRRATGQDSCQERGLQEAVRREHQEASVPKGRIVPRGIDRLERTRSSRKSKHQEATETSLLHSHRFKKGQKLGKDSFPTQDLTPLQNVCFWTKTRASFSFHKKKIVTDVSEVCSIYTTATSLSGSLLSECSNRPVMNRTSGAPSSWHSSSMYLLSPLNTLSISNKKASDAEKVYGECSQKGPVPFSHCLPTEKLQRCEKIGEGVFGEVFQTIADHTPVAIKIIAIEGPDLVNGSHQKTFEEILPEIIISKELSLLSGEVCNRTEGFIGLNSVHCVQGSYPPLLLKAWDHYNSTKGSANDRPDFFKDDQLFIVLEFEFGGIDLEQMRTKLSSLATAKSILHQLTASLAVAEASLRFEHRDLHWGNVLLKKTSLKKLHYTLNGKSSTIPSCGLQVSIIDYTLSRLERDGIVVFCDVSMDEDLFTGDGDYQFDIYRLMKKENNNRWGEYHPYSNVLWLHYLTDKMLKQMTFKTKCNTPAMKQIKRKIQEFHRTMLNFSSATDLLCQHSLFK
Conditions: GSG2 (Haspin); compound at 10µM; read-out: % of Inhibition. In short, it runs like this: as §1

The target in another assay is T3, BTK (Homo sapiens, UniProt Q06187).
T3 construct: purchased Thermo Fisher Scientific
Conditions: BTK; compound at 10µM; read-out: % of Inhibition. In short, it runs like this:
as §1

Assay [1] has as its target T4, PIK3CD/PIK3R1 (p11 0 delta/p85 alpha) (Homo sapiens, UniProt O00329).
T4 construct: purchased Thermo Fisher Scientific
Conditions: PIK3CD/PIK3R1; compound at 10µM; read-out: % of Inhibition. In short, it runs like this: as §1

A further assay concerns the target T5, MAP4K2 (GCK) (Homo sapiens, UniProt Q12851).
T5 construct: purchased Thermo Fisher Scientific
T5 sequence (Q12851 1-820): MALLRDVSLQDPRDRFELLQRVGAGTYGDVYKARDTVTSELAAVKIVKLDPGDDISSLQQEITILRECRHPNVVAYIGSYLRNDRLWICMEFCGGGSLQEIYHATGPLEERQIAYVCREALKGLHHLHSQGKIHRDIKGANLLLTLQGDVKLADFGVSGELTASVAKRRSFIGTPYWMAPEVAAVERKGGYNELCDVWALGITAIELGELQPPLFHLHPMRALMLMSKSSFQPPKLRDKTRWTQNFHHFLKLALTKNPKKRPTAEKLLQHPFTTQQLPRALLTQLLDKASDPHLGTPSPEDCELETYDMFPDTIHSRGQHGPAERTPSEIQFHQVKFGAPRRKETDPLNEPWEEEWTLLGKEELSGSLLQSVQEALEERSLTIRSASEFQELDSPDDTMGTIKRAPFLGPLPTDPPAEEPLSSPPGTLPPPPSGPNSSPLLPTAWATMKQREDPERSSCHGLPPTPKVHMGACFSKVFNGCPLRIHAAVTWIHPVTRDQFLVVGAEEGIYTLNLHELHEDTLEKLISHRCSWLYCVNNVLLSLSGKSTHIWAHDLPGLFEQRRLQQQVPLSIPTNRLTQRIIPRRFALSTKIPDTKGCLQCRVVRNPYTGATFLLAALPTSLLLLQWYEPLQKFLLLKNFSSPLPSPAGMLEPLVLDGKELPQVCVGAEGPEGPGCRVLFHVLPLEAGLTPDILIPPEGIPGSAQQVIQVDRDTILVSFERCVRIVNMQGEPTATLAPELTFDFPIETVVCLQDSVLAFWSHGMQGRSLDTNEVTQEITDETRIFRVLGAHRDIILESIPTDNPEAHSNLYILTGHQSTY
Conditions: MAP4K2 (GCK); compound at 10µM; read-out: % of Inhibition. In short, it runs like this:
as §1

The next assay addresses T6, EGFR (ErbB1) (Homo sapiens, UniProt P00533).
T6 construct: purchased Thermo Fisher Scientific
Conditions: EGFR (ErbB1); compound at 10µM; read-out: % of Inhibition. In short, it runs like this:
as §1

The target in another assay is T7, CSF1R (FMS) (Homo sapiens, UniProt P07333).
T7 construct: purchased Thermo Fisher Scientific
The note with it: CSF1R (FMS); compound at 10µM; read-out: % of Inhibition. Put shortly:
as §1

The target in assay [2] is T8, PIK3CA/PIK3R1 (p11 0 alpha/p85 alpha) (Homo sapiens, UniProt P42336).
T8 construct: purchased Thermo Fisher Scientific
Conditions: PIK3CA/PIK3R1; compound at 10µM; read-out: % of Inhibition. In short, it runs like this:
as §1

In the next assay the target is T9, PI4K2B (PI4K2 beta) (Homo sapiens, UniProt Q8TCG2).
T9 construct: purchased Thermo Fisher Scientific
Conditions: PI4K2B (PI4K2 beta); compound at 10µM; read-out: % of Inhibition. In short, it runs like this: as §1

A further assay has as its target T10, IRAK1 (Homo sapiens, UniProt P51617).
T10 construct: purchased Thermo Fisher Scientific
The note with it: IRAK1; compound at 10µM; read-out: % of Inhibition. In short, it runs like this:
as §1

T4 sequence (O00329 whole entry): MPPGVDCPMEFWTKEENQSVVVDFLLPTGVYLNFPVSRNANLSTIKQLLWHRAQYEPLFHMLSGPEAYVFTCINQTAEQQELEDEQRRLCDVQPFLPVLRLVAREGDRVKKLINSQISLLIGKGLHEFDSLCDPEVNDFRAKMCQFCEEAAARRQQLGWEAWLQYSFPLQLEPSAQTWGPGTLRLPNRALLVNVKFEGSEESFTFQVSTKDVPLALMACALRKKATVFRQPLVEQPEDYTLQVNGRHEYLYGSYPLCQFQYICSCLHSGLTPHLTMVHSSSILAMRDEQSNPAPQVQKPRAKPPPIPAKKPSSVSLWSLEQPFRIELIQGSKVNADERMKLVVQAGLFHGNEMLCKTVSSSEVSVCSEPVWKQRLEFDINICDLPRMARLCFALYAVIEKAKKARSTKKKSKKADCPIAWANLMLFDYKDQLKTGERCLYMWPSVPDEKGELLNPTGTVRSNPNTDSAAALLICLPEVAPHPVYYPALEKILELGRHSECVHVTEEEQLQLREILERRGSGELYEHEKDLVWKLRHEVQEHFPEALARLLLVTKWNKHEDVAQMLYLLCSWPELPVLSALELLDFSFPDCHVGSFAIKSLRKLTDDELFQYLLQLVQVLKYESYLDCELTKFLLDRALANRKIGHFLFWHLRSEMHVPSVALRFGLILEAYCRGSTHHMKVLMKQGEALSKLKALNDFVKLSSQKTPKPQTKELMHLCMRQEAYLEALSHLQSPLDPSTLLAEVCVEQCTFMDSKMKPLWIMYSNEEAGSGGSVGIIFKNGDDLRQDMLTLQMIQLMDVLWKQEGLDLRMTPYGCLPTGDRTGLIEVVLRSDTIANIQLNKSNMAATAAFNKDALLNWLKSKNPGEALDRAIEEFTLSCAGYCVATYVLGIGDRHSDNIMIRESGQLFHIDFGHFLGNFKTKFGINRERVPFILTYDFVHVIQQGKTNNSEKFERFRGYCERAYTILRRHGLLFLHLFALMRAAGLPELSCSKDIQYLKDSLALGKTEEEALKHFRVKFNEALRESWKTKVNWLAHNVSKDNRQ
T4 sequence (P27986 whole entry partner): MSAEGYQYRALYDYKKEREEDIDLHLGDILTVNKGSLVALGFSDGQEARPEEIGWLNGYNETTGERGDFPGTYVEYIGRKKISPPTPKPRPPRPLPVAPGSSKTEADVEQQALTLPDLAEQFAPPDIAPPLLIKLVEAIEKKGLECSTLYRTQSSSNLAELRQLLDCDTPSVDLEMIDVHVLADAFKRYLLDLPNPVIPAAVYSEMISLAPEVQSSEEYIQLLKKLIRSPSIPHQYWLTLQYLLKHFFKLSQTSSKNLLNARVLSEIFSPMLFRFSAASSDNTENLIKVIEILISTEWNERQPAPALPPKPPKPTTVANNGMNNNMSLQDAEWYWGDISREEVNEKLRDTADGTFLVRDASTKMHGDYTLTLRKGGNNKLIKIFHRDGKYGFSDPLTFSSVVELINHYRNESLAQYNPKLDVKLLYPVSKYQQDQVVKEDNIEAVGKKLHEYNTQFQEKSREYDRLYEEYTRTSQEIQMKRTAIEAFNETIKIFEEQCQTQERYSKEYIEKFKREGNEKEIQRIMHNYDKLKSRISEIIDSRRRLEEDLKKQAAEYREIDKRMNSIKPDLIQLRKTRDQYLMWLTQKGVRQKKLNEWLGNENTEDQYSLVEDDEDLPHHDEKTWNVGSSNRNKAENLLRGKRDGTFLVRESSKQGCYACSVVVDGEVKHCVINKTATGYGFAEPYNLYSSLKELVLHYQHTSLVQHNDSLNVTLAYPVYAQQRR
T9 sequence (Q8TCG2 whole entry): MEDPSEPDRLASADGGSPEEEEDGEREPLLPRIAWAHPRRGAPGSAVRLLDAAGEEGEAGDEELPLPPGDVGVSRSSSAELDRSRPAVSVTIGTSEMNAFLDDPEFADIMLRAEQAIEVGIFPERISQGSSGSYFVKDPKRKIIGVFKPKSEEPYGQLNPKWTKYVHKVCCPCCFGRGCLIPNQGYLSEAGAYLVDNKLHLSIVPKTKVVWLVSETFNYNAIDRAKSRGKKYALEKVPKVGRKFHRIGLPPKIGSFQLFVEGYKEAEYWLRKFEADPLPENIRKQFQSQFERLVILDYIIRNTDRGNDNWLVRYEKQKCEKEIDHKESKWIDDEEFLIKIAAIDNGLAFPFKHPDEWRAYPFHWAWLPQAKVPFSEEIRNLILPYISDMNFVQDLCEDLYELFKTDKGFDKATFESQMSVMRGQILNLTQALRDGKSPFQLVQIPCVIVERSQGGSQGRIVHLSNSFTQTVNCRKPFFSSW
T1 sequence (P31749 whole entry): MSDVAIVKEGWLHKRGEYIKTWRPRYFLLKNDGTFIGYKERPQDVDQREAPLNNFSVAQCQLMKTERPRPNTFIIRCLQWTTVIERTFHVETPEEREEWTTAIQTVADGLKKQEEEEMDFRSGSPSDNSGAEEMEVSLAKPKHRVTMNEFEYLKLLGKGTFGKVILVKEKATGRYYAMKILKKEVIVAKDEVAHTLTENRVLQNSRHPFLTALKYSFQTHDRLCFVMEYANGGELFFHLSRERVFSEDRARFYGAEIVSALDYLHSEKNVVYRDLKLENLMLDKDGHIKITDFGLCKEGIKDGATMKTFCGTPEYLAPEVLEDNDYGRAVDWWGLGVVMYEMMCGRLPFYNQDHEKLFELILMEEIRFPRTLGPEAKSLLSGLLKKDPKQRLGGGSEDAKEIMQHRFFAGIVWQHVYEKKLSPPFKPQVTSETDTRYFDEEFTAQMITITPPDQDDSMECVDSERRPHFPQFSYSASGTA
T3 sequence (Q06187 whole entry): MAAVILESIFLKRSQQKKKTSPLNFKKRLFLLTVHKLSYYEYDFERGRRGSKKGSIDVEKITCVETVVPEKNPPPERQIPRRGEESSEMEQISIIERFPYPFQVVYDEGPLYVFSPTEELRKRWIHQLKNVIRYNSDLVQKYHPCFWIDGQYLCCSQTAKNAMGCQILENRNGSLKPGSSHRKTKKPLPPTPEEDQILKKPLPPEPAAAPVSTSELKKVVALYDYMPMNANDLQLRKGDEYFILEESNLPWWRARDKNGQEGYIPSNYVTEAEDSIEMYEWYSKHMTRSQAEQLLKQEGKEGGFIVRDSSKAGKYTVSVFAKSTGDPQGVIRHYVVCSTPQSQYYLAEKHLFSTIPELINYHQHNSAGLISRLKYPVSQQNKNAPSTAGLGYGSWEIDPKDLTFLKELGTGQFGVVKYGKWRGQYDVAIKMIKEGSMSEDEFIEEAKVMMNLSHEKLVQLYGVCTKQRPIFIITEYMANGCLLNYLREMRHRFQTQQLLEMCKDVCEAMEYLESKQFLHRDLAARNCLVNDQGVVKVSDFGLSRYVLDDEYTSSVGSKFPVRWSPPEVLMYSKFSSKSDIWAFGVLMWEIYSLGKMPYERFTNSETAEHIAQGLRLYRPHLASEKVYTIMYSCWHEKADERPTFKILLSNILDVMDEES
T10 sequence (P51617 whole entry): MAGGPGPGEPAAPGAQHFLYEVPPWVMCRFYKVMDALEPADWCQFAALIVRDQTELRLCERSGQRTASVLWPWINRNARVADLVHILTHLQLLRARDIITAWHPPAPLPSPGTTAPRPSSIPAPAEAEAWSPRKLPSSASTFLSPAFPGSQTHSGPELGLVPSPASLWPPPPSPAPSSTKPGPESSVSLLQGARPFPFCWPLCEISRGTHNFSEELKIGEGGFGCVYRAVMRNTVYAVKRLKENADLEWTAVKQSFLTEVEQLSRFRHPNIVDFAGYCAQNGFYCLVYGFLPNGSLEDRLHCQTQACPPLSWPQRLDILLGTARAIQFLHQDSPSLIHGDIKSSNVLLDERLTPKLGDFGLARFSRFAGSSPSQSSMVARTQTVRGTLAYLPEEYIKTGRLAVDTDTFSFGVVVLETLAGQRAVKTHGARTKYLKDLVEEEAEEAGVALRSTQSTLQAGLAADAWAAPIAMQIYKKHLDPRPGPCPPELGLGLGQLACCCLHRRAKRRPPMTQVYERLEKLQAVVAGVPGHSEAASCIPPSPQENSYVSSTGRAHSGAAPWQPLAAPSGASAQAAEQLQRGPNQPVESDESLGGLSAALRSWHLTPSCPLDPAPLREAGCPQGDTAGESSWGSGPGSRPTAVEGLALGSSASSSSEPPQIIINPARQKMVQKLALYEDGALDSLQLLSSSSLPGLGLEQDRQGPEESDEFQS
T7 sequence (P07333 20-972): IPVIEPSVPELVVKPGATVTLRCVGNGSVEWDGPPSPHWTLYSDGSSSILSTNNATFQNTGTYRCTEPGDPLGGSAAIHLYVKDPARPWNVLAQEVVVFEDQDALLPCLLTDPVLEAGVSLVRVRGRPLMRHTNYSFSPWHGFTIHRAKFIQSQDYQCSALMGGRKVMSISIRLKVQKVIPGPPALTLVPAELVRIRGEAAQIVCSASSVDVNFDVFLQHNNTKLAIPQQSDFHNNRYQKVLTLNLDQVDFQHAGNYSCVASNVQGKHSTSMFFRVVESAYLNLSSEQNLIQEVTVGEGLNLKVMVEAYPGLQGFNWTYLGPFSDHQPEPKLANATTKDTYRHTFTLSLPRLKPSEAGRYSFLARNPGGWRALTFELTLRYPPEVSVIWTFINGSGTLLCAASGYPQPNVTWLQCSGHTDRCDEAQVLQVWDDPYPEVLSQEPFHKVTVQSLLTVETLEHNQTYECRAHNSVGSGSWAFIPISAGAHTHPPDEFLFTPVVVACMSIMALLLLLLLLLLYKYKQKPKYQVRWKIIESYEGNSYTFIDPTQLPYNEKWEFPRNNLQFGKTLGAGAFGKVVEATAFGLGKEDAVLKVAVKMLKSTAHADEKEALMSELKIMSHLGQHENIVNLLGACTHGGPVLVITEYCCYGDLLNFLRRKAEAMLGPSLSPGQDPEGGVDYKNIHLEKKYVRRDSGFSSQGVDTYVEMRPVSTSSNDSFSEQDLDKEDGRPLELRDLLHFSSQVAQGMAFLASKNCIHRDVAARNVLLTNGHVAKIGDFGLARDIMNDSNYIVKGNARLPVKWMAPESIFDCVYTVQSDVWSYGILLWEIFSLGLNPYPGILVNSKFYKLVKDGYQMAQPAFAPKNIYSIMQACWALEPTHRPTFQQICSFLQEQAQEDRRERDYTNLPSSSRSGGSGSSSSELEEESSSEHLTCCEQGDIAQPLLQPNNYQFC

For the compound `O=c1c2cc(O)ccc2c2nccc3c4cc(O)ccc4n1c32` [MW01-E10, 5,16-dihydroxy-1,11-diazapentacyclo[10.7.1.0^2,^7.0^8,^20.0^13,^18]icosa-2(7),3,5,8(20),9,11,13(18),14,16-nonaen-19-one], the inhibition at 10 µM at AKT1 (PKB alpha) amounted to 18%; on GSG2 (Haspin), 80%; on BTK it was 69%; in assay [1] it was 87%; on MAP4K2 (GCK), 98%; at EGFR (ErbB1), 15%. The inhibition at 10 µM at CSF1R (FMS) was found to be 61%; in [2], 90%; at PI4K2B (PI4K2 beta) it was 22%; at IRAK1, 71%.

For `COc1ccc2c(c1)c1ccnc3c4nc(OC)ccc4c(=O)n2c13` [MW01-E6, 5,15-dimethoxy-1,11,14-triazapentacyclo[10.7.1,0^2,7.0^8,^20.0^13,^18]icosa-2(7),3,5,8(20),9,11,13(18),14,16-nonaen-19-one], the inhibition at 10 µM is 6% on AKT1 (PKB alpha); 29% at GSG2 (Haspin); 30% on BTK; 34% in [1]; 70% on MAP4K2 (GCK); 11% at EGFR (ErbB1). Also, the inhibition at 10 µM was 33% on CSF1R (FMS), 38% in assay [2], 11% on PI4K2B (PI4K2 beta) and 56% on IRAK1.

For the compound `COc1ccc2c(c1)c1ccnc3c4ccnc(OC)c4c(=O)n2c13` [MW01-E14, 5,17-dimethoxy-1,11,16-triazapentacyclo[10.7.1.0^2,^7.0^8,^20.0^13,^18]icosa-2(7),3,5,8(20),9,11,13(18),14,16-nonaen-19-one], the inhibition at 10 µM turned out to be 9% on AKT1 (PKB alpha); 24% at GSG2 (Haspin); 29% on BTK; 84% in assay [1]; 81% on MAP4K2 (GCK); 9% on EGFR (ErbB1). The inhibition at 10 µM on CSF1R (FMS) came out at 18%; in assay [2], 80%; on PI4K2B (PI4K2 beta) it was 21%; on IRAK1, 9%.

By inhibition is commonly meant how much of the control response was suppressed.
